Experiments:
[1] = molecular target: recombinant human Bcl-2-G101V protein (Homo sapiens (Human), UniProt P10415, G101V); assay: Bcl-2-G101V TR-FRET Assay; assay type: binding; conditions: Bcl-2 G101V mutant, TR-FRET; read-out: Biochemical assay (IC50, nM) Bcl-2 G101V
Procedure, shortened: (§1)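 TR-FRET read at excitation 337 nm with emission at 490 nm and 520 nm. Inhibition of Bcl-2-G101V binding to its ligand across increasing compound concentrations was calculated from the 490/520 nm fluorescence ratio, and IC50 values came from four-parameter logistic fits.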

[2] = test system: recombinant human Bcl-2-G101V protein; assay: Bcl-2-G101V TR-FRET Assay; assay type: binding; conditions: ratio of biochemical IC50 Bcl-2 G101V / Bcl-2 WT
Procedure, shortened: as §1

[3] = molecular target: Recombinant human Bcl-2 protein (Homo sapiens (Human), UniProt P10415); assay: Bcl-2 TR-FRET Assay; assay type: binding; conditions: Bcl-2 wild type, TR-FRET; read-out: Biochemical assay (IC50, nM) Bcl-2 WT
Procedure, shortened: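 In pH 7.5 phosphate buffer containing NaCl, EDTA, Tween-20 and BSA, 0.05 nM Bcl-2 saw serially diluted compound for 0.5 h before 0.5 nM FITC-Bak peptide was added. Signal ratio at 520/490 nm after 1 h yielded IC50.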

[4] = test system: RS4;11 (BCL-2 dependent acute lymphoblastic leukemia cell line); assay: RS4;11 Cell Proliferation Assay; assay type: cell-based; conditions: Homo sapiens, RS4-11, RS4;11 cells, read-out: Cellular proliferation assay (IC50, nM) RS4
Procedure, shortened: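 Viability measured via CellTiter-Glo luminescence after a 48 h, 37 °C exposure to compounds (10 points, highest 1 μM). Seeding was 50,000 RS4;11 cells per well in 10% FBS RPMI-1640; IC50 given as mean.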

[5] = test system: BCL-2 G101V knock-in cell line H96 (derive from RS4;11); assay: Bcl 2-G101V Knock-In RS4;11 Cell Proliferation Assay; assay type: cell-based; conditions: Homo sapiens, RS4;11 Bcl-2 G101V knock-in clone H96, 48 hrs, CellTiter-GLO, read-out: Cellular proliferation assay (IC50, nM) RS4
Procedure, shortened: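 CellTiter-Glo luminescence after 48 h, 37 °C compound treatment (10 concentrations, maximum 1 μM or 10 μM) gave mean IC50 values. Cells were 50,000 per well of H96, a BCL2-G101V knock-in single clone derived from RS4;11 by Cas9 editing.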

Structure (SMILES) | IC50 [1] | Ratio of Bcl-2 G101V/WT [2] | IC50 [3] | IC50 [4] | IC50 [5]
CC(C)c1ccccc1[C@@H]1CN(Cc2ccc3c(c2)OCC3)CCN1C1CC2(C1)CN(c1ccc(C(=O)NS(=O)(=O)c3ccc(NC[C@H]4CC[C@](C)(O)CC4)c([N+](=O)[O-])c3)c(Oc3cnc4[nH]cc(F)c4c3)c1)C2 [Example 297, 4-(6-((R)-4-((2,3-dihydrobenzofuran-6-yl)methyl)-2-(2-isopropylphenyl)piperazin-1-yl)-2-azaspiro[3.3]heptan-2-yl)-2-((3-fluoro-1H-pyrrolo[2,3-b]pyridin-5-yl)oxy)-N-((4-((((1r,4r)-4-hydroxy-4-methylcyclohexyl)methyl)amino)-3-nitrophenyl)sulfonyl)benzamide] | 0.4 nM | 3.0 | 0.13 nM | 0.25 nM | 1.16 nM
CC(C)c1ccccc1[C@@H]1CN(Cc2ccc3c(c2)OCC3)CCN1C1CC2(C1)CN(c1ccc(C(=O)NS(=O)(=O)c3ccc(NC[C@H]4CC[C@](C)(O)CC4)c([N+](=O)[O-])c3)c(Oc3cnc4[nH]ccc4c3)c1)C2 [Example 298, 2-((1H-pyrrolo[2,3-b]pyridin-5-yl)oxy)-4-(6-((R)-4-((2,3-dihydrobenzofuran-6-yl)methyl)-2-(2-isopropylphenyl)piperazin-1-yl)-2-azaspiro[3.3]heptan-2-yl)-N-((4-((((1r,4r)-4-hydroxy-4-methylcyclohexyl)methyl)amino)-3-nitrophenyl)sulfonyl)benzamide] | 0.45 nM | 4.6 | 0.099 nM | 0.24 nM | 1.82 nM
CC(C)c1ccccc1[C@@H]1CN(Cc2ccc3c(c2)OCC3)CCN1C1CC2(CCN(c3ccc(C(=O)NS(=O)(=O)c4ccc(NC[C@H]5CC[C@](C)(O)CC5)c([N+](=O)[O-])c4)c(Oc4cnc5[nH]cc(F)c5c4)c3)CC2)C1 [Example 305, 4-(2-((R)-4-((2,3-dihydrobenzofuran-6-yl)methyl)-2-(2-isopropylphenyl)piperazin-1-yl)-7-azaspiro[3.5]nonan-7-yl)-2-((3-fluoro-1H-pyrrolo[2,3-b]pyridin-5-yl)oxy)-N-((4-((((1r,4r)-4-hydroxy-4-methylcyclohexyl)methyl)amino)-3-nitrophenyl)sulfonyl) benzamide] | 0.6 nM | 3.2 | 0.19 nM | 0.32 nM | 1.3 nM
CC(C)c1ccccc1[C@@H]1CN(Cc2ccc3c(c2)OCC3(C)C)CCN1C1CC2(CCN(c3ccc(C(=O)NS(=O)(=O)c4ccc(NC[C@H]5CC[C@](C)(O)CC5)c([N+](=O)[O-])c4)c(Oc4cnc5[nH]cc(F)c5c4)c3)CC2)C1 [Example 308, 4-(2-((R)-4-((3,3-dimethyl-2,3-dihydrobenzofuran-6-yl)methyl)-2-(2-isopropylphenyl)piperazin-1-yl)-7-azaspiro[3.5]nonan-7-yl)-2-((3-fluoro-1H-pyrrolo[2,3-b]pyridin-5-yl)oxy)-N-((4-((((1r,4r)-4-hydroxy-4-methylcyclohexyl)methyl)amino)-3-nitrophenyl)sulfonyl)benzamide] | 3.11 nM | 4.6 | 0.67 nM | 0.58 nM | 3.95 nM
CC(C)c1ccccc1[C@@H]1CN(Cc2ccc3c(c2)OCC3(C)C)CCN1C1CC2(C1)CN(c1ccc(C(=O)NS(=O)(=O)c3ccc(NC[C@H]4CC[C@](C)(O)CC4)c([N+](=O)[O-])c3)c(Oc3cnc4[nH]cc(F)c4c3)c1)C2 [Example 311, 4-(6-((R)-4-((3,3-dimethyl-2,3-dihydrobenzofuran-6-yl)methyl)-2-(2-isopropylphenyl)piperazin-1-yl)-2-azaspiro[3.3]heptan-2-yl)-2-((3-fluoro-1H-pyrrolo[2,3-b]pyridin-5-yl)oxy)-N-((4-((((1r,4r)-4-hydroxy-4-methylcyclohexyl)methyl)amino)-3-nitrophenyl)sulfonyl)benzamide] | 1.5 nM | 3.4 | 0.43 nM | 0.42 nM | 2.3 nM
CC(C)c1ccccc1[C@@H]1CN(Cc2ccnc3c2OC(C)(C)CO3)CCN1C1CC2(C1)CN(c1ccc(C(=O)NS(=O)(=O)c3ccc(NC[C@H]4CC[C@](C)(O)CC4)c([N+](=O)[O-])c3)c(Oc3cnc4[nH]cc(F)c4c3)c1)C2 [Example 313, 4-(6-((R)-4-((2,2-dimethyl-2,3-dihydro-[1,4]dioxino[2,3-b]pyridin-8-yl)methyl)-2-(2-isopropylphenyl)piperazin-1-yl)-2-azaspiro[3.3]heptan-2-yl)-2-((3-fluoro-1H-pyrrolo[2,3-b]pyridin-5-yl)oxy)-N-((4-((((1r,4r)-4-hydroxy-4-methylcyclohexyl)methyl)amino)-3-nitrophenyl)sulfonyl)benzamide] | 0.19 nM | 3.9 | 0.048 nM | 0.18 nM | 0.4 nM
CC(C)c1ccccc1[C@@H]1CN(Cc2ccnc3c2OC(C)(C)CO3)CCN1C1CC2(C1)CN(c1ccc(C(=O)NS(=O)(=O)c3ccc(NC[C@H]4CC[C@](C)(O)CC4)c([N+](=O)[O-])c3)c(Oc3cnc4[nH]ccc4c3)c1)C2 [Example 314, 2-((1H-pyrrolo[2,3-b]pyridin-5-yl)oxy)-4-(6-((R)-4-((2,2-dimethyl-2,3-dihydro-[1,4]dioxino[2,3-b]pyridin-8-yl)methyl)-2-(2-isopropylphenyl)piperazin-1-yl)-2-azaspiro[3.3]heptan-2-yl)-N-((4-((((1r,4r)-4-hydroxy-4-methylcyclohexyl)methyl)amino)-3-nitrophenyl)sulfonyl)benzamide] | 0.13 nM | 4.2 | 0.032 nM | 0.17 nM | 0.61 nM
CC(C)c1ccccc1[C@@H]1CN(Cc2cccc3c2OCC(C)(C)O3)CCN1C1CC2(C1)CN(c1ccc(C(=O)NS(=O)(=O)c3ccc(NC[C@H]4CC[C@](C)(O)CC4)c([N+](=O)[O-])c3)c(Oc3cnc4[nH]cc(F)c4c3)c1)C2 [Example 315, 4-(6-((R)-4-((2,2-dimethyl-2,3-dihydrobenzo[b][1,4]dioxin-5-yl)methyl)-2-(2-isopropylphenyl)piperazin-1-yl)-2-azaspiro[3.3]heptan-2-yl)-2-((3-fluoro-1H-pyrrolo[2,3-b]pyridin-5-yl)oxy)-N-((4-((((1r,4r)-4-hydroxy-4-methylcyclohexyl)methyl)amino)-3-nitrophenyl)sulfonyl)benzamide] | 0.99 nM | 3.2 | 0.31 nM | 0.18 nM | 0.86 nM
CC(C)c1ccccc1[C@@H]1CN(Cc2ccnc3c2OCC(C)(C)O3)CCN1C1CC2(C1)CN(c1ccc(C(=O)NS(=O)(=O)c3ccc(NC[C@H]4CC[C@](C)(O)CC4)c([N+](=O)[O-])c3)c(Oc3cnc4[nH]ccc4c3)c1)C2 [Example 316, 2-((1H-pyrrolo[2,3-b]pyridin-5-yl)oxy)-4-(6-((R)-4-((3,3-dimethyl-2,3-dihydro-[1,4]dioxino[2,3-b]pyridin-8-yl)methyl)-2-(2-isopropylphenyl)piperazin-1-yl)-2-azaspiro[3.3]heptan-2-yl)-N-((4-((((1r,4r)-4-hydroxy-4-methylcyclohexyl)methyl)amino)-3-nitrophenyl)sulfonyl)benzamide] | 0.1 nM | 4.5 | 0.022 nM | 0.16 nM | 0.53 nM

Reference: patent publication US20240376097A1, “BCL-2 Inhibitor” (BeiGene Ltd., priority 2020, published 2024)
